Columns and labels:
Carbonic anhydrase 1 = Carbonic anhydrase 1 (Homo sapiens, UniProt P00915); assay: Inhibition of human carbonic anhydrase 1 incubated for 15 mins prior to testing measured for 10 to 100 secs by phenol red dye based stopped-flow CO2 hydration assay
Carbonic anhydrase 9 = Carbonic anhydrase 9 (Homo sapiens, UniProt Q16790); assay: Inhibition of human carbonic anhydrase 9 incubated for 15 mins prior to testing measured for 10 to 100 secs by phenol red dye based stopped-flow CO2 hydration assay
Carbonic anhydrase 12 = Carbonic anhydrase 12 (Homo sapiens, UniProt O43570); assay: Inhibition of human carbonic anhydrase 12 incubated for 15 mins prior to testing measured for 10 to 100 secs by phenol red dye based stopped-flow CO2 hydration assay
Sequence of Carbonic anhydrase 12 (O43570 whole entry): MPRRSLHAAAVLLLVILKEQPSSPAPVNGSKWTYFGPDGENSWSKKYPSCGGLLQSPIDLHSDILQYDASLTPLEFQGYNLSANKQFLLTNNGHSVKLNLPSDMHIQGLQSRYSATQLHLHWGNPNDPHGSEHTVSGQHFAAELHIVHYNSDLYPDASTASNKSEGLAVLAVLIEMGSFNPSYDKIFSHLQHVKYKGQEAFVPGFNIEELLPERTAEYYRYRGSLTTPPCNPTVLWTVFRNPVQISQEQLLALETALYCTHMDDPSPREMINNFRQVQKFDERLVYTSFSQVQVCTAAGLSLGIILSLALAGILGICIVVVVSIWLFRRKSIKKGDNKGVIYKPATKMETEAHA

Carbonic anhydrase 2 [1] = target: T1, Carbonic anhydrase 2 (Homo sapiens, UniProt P00918); assay: Inhibition of recombinant human carbonic anhydrase 2 incubated for 15 mins prior to testing measured for 10 to 100 secs by phenol red dye based stopped-flow CO2 hydration assay
Carbonic anhydrase 2 [2] = target: T1, Carbonic anhydrase 2; assay: Inhibition of recombinant human carbonic anhydrase 2 expressed in Escherichia coli BL21 (DE3) using 4-nitrophenyl acetate as substrate incubated for 10 mins prior to testing by spectrophotometric method

Sequence of Carbonic anhydrase 1 (P00915 whole entry): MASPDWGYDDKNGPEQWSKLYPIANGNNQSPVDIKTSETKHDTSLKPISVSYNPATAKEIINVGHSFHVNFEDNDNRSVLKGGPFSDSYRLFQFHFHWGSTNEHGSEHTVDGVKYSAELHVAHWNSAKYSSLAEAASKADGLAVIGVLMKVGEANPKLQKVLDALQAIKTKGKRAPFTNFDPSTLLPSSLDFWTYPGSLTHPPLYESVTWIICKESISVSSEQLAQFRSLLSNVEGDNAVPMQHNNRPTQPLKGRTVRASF

Structure (SMILES) | Ki (Carbonic anhydrase 1) [µM] | Ki (Carbonic anhydrase 9) [µM] | further results
O=C(CSc1nccc(Nc2ccc(S(=O)(=O)Nc3ccccn3)cc2)n1)c1ccc(Cl)cc1 | > 100 | > 100 | 
COc1ccc(C(=O)CSc2nccc(Nc3ccc(S(=O)(=O)Nc4cc(C)on4)cc3)n2)cc1 |  | > 100 | 
Cc1cc(NS(=O)(=O)c2ccc(Nc3ccnc(SCC(=O)c4ccc(F)cc4)n3)cc2)no1 | > 100 | 92.1 | Ki (Carbonic anhydrase 12): > 100 µM
O=C(CSc1nccc(Nc2ccc(S(=O)(=O)Nc3cncs3)cc2)n1)c1ccccc1 |  | > 100 | 
NS(=O)(=O)c1ccc(Nc2ccnc(NS(=O)(=O)c3cccnc3)n2)cc1 |  |  | Ki (Carbonic anhydrase 2 [2]): 0.004 µM
NS(=O)(=O)c1ccc(Nc2ccnc(NS(=O)(=O)c3cccc(C(F)(F)F)c3)n2)cc1 |  |  | Ki (Carbonic anhydrase 2 [2]): 0.001 µM
NS(=O)(=O)c1ccc(Nc2ccnc(SCC(=O)c3ccc(Br)cc3)n2)cc1 |  | > 100 | 
COc1ccc(C(=O)CSc2nccc(Nc3ccc(S(=O)(=O)Nc4ccccn4)cc3)n2)cc1 | > 100 | > 100 | Ki (Carbonic anhydrase 2 [1]): > 100 µM
NS(=O)(=O)c1ccc(Nc2ccnc(SCC(=O)c3ccc(Cl)cc3)n2)cc1 |  | > 100 | 
NS(=O)(=O)c1ccc(Nc2ccnc(SCC(=O)c3ccc(C(F)(F)F)cc3)n2)cc1 |  | 39.2 | 
O=C(CSc1nccc(Nc2ccc(S(=O)(=O)Nc3cncs3)cc2)n1)c1ccc(C(F)(F)F)cc1 |  | > 100 | 
CC(=O)NS(=O)(=O)c1ccc(Nc2ccnc(SCC(=O)c3ccc(Cl)cc3)n2)cc1 |  | > 100 | 
O=C(CSc1nccc(Nc2ccc(S(=O)(=O)Nc3ccccn3)cc2)n1)c1ccccc1 | > 100 | > 100 | 

More lines, in order of falling Ki (Carbonic anhydrase 9), values ahead:

Ki (Carbonic anhydrase 1) [µM] | Ki (Carbonic anhydrase 9) [µM] | Structure (SMILES) | further results
> 100 | 8.94 | Cc1cc(NS(=O)(=O)c2ccc(Nc3ccnc(SCC(=O)c4ccc(Cl)cc4)n3)cc2)no1 | 
 | 5.17 | COc1ccc(C(=O)CSc2nccc(Nc3ccc(S(N)(=O)=O)cc3)n2)cc1 | 
> 100 | 2.51 | COc1ccc(C(=O)CSc2nccc(Nc3ccc(S(=O)(=O)Nc4ncccn4)cc3)n2)cc1 | Ki (Carbonic anhydrase 2 [1]): > 100 µM
 | 0.82 | NS(=O)(=O)c1ccc(Nc2ccnc(SCC(=O)c3ccc(F)cc3)n2)cc1 | 
 | 0.55 | O=C(CSc1nccc(Nc2ccc(S(=O)(=O)Nc3cncs3)cc2)n1)c1ccc(Cl)cc1 | 
> 100 | 0.23 | NS(=O)(=O)c1ccc(Nc2ccnc(SCC(=O)c3ccc(-c4ccccc4)cc3)n2)cc1 | 
 | 0.16 | NS(=O)(=O)c1ccc(Nc2ccnc(SCC(=O)c3ccccc3)n2)cc1 | 

— ChEMBL document CHEMBL4627269, “New thiopyrimidine-benzenesulfonamide conjugates as selective carbonic anhydrase II inhibitors: synthesis, in vitro biological evaluation, and molecular docking studies” (Bioorg Med Chem, 2020)
